Biological target: T1, PYL1 (Arabidopsis thaliana, UniProt Q8VZS8, S119A)
T1 sequence (Q8VZS8 2-221 S119A): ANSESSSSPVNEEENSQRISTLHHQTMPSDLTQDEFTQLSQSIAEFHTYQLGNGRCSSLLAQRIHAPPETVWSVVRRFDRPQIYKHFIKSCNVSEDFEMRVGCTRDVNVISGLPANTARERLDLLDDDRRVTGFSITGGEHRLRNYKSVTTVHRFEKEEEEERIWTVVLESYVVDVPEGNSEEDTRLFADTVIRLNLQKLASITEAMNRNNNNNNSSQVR
Assay: microscale thermophoresis
Assay type: binding

For `CC1=CC(=O)CC(C)(C)[C@@]1(O)/C=C/C(C)=C\C(=O)O` [Abscisic Acid], which Kd is on record?
The Kd was 219 µM.

— paper PMC5772982 (Molecular cell, 2017)
